Reference: paper PMC1919488 (Nucleic Acids Research, 2007)
Positions count from the first letter of the chain named. Like-named read-outs stand apart in the source and are kept apart here.

Key:
Rad51 [1] = biological target: T1, Rad51 (Saccharomyces cerevisiae, UniProt P25454); assay type: binding
T1 sequence (P25454 1-400): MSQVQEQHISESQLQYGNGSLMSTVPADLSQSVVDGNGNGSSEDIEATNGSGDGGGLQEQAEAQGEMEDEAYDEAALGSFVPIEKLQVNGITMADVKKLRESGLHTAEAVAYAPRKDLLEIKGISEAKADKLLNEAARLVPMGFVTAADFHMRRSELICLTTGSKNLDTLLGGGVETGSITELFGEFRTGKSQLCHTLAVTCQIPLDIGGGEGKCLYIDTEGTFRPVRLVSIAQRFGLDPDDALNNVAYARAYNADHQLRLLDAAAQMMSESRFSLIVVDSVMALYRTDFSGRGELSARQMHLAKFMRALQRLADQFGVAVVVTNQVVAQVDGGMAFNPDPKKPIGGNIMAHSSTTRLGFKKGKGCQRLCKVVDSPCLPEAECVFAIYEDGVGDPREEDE

Rad51 [2] = biological target: T2, Rad51 (Saccharomyces cerevisiae, UniProt P25454, K191R); assay type: binding
T2 sequence (P25454 1-400 K191R): T1 sequence (P25454 1-400) with K191R

Rad51 [3] = biological target: T3, Rad51 (Saccharomyces cerevisiae, UniProt P25454, K191A); assay type: binding
T3 sequence (P25454 1-400 K191A): T1 sequence (P25454 1-400) with K191A

Rad51 [4] = biological target: T3, Rad51; assay: biochemical
Rad51 [5] = biological target: T2, Rad51; assay: biochemical
Rad51 [6] = biological target: T1, Rad51; assay: biochemical

Row | Kd (Rad51 [4]) [µM] | Kd (Rad51 [5]) [µM] | Kd (Rad51 [6]) [µM] | Structure (SMILES) | Kd (Rad51 [1]) [µM] | Kd (Rad51 [2]) [µM] | Kd (Rad51 [3]) [µM]
1 |  |  |  | [N-]=[N+]=Nc1nc2c(N)ncnc2n1[C@@H]1O[C@H](COP(=O)(O)OP(=O)(O)OP(=O)(O)O)[C@@H](O)[C@H]1O [8-Azido-ATP] | 10.2 ± 5.1 | 26.9 ± 10.3 | 73.7 ± 35.6
2 | 34.2 ± 25.8 | 52.5 ± 18.2 | 8.8 ± 4.5 | Nc1ncnc2c1ncn2[C@@H]1O[C@H](COP(=O)(O)OP(=O)(O)OP(=O)(O)O)[C@@H](O)[C@H]1O [ATP] |  |  | 
